Data taken from US7087642B2 (priority 1999, dated 2006).

Experiments:
[1] = target: IMPDH human type II (Homo sapiens, UniProt P12268); test: biochemical; details: read-out: Ki
[2] = tested on: human PBMC T cells; test: cells; format: cell-based; details: Homo sapiens, 72 h, read-out: T-cells (IC50)
[3] = tested on: human PBMC B cells; test: cells; format: cell-based; details: Homo sapiens, 72 h, read-out: B-cells (IC50)

COc1cc(NC(=O)Nc2cccc(CNC(=O)OC3COCC3OCC#N)c2)ccc1-c1cnco1 (stereo not drawn) [Compound 75]
Ki [1]: < 10 nM
IC50 [2]: 100 to 1000 nM
IC50 [3]: 100 to 1000 nM

CCCN(CC)CCC(OC(=O)NCc1cccc(NC(=O)Nc2ccc(-c3cnco3)c(OC)c2)c1)c1ccccc1 (stereo not drawn) [Compound 119]
Ki [1]: > 50 nM
IC50 [2]: 100 to 1000 nM
IC50 [3]: 100 to 1000 nM

CCC(CO)OC(=O)N[C@H](C)c1cccc(NC(=O)Nc2ccc(C#N)c(OC)c2)c1 (stereo partly drawn) [Compound 175]
Ki [1]: > 50 nM
IC50 [2]: > 1000 nM
IC50 [3]: > 1000 nM

CCCN(CC1CC1)CC(OC(=O)NCc1cccc(NC(=O)Nc2ccc(-c3cnco3)c(OC)c2)c1)c1ccccc1 (stereo not drawn) [Compound 114]
Ki [1]: > 50 nM
IC50 [2]: > 1000 nM
IC50 [3]: > 1000 nM

CC[C@@H](CCC#N)OC(=O)NCc1cccc(NC(=O)Nc2ccc(-c3cnco3)c(OC)c2)c1 [Compound 101]
Ki [1]: < 10 nM
IC50 [2]: < 100 nM
IC50 [3]: < 100 nM

CC[C@@H](CC#N)OC(=O)NCc1cccc(NC(=O)Nc2ccc(-c3cnco3)c(OC)c2)c1 [Compound 82]
Ki [1]: > 50 nM
IC50 [2]: 100 to 1000 nM
IC50 [3]: 100 to 1000 nM

CC[C@H](CCC#N)OC(=O)N[C@@H](C)c1cccc(NC(=O)Nc2ccc(C#N)c(OC)c2)c1 [Compound 162]
Ki [1]: 10 to 50 nM
IC50 [2]: 100 to 1000 nM
IC50 [3]: 100 to 1000 nM

COc1cc(NC(=O)Nc2cccc(CNC(=O)OCCC#N)c2)ccc1-c1cnco1 [Compound 1]
Ki [1]: < 10 nM
IC50 [2]: 100 to 1000 nM
IC50 [3]: < 100 nM

COc1cc(NC(=O)Nc2cccc(CNC(=O)OC(CN(CC(C)C)CC3CC3)c3ccccc3)c2)ccc1-c1cnco1 (stereo not drawn) [Compound 117]
Ki [1]: > 50 nM
IC50 [2]: > 1000 nM
IC50 [3]: > 1000 nM

COc1cc(NC(=O)Nc2cccc(CNC(=O)OCCN(CCC#N)CCC#N)c2)ccc1-c1cnco1 [Compound 14]
Ki [1]: < 10 nM
IC50 [2]: > 1000 nM
IC50 [3]: 100 to 1000 nM

COc1cc(NC(=O)Nc2cccc(CNC(=O)O[C@@H](CC#N)CN(C)C)c2)ccc1-c1cnco1 [Compound 22]
Ki [1]: < 10 nM
IC50 [2]: 100 to 1000 nM
IC50 [3]: 100 to 1000 nM

COc1cc(NC(=O)Nc2cccc(CNC(=O)OC(CC#N)C(F)(F)F)c2)ccc1-c1cnco1 (stereo not drawn) [Compound 79]
Ki [1]: < 10 nM
IC50 [2]: 100 to 1000 nM
IC50 [3]: 100 to 1000 nM

CCC(OC(=O)NCc1cccc(NC(=O)Nc2ccc(-c3cnco3)c(OC)c2)c1)C(C)(C)C#N (stereo not drawn) [Compound 100]
Ki [1]: 10 to 50 nM
IC50 [2]: 100 to 1000 nM
IC50 [3]: 100 to 1000 nM

CCC(CN(CC)CC)OC(=O)NCc1cccc(NC(=O)Nc2ccc(-c3cnco3)c(OC)c2)c1 (stereo not drawn) [Compound 87]
Ki [1]: < 10 nM
IC50 [2]: < 100 nM
IC50 [3]: < 100 nM

COc1cc(NC(=O)Nc2cccc(CNC(=O)OC[C@@H](CC#N)NC(=O)OC(C)(C)C)c2)ccc1-c1cnco1 [Compound 12]
Ki [1]: < 10 nM
IC50 [2]: 100 to 1000 nM
IC50 [3]: 100 to 1000 nM

COc1cc(NC(=O)Nc2cccc(CNC(=O)O[C@H](CN(CC(C)C)C(C)C)c3ccccc3)c2)ccc1-c1cnco1 [Compound 109]
Ki [1]: > 50 nM
IC50 [2]: 100 to 1000 nM
IC50 [3]: 100 to 1000 nM

CCCN(CC(C)C)CC(OC(=O)NCc1cccc(NC(=O)Nc2ccc(-c3cnco3)c(OC)c2)c1)c1ccccc1 (stereo not drawn) [Compound 112]
Ki [1]: > 50 nM
IC50 [2]: > 1000 nM
IC50 [3]: > 1000 nM
